Experimental data published in US12187709B2 (Genentech, Inc., priority 2021, dated 2025).

Tests used:
Cbl-b = Cbl-b (Homo sapiens (Human), UniProt Q13191); assay: Cbl-b LCK Ub TR-FRET assay (Cbl-b Lck HTRF); format: biochemical; details: for IC50: Cbl-b LCK Ub TR-FRET; for fold-selectivity (Cbl-b over C-cbl): ratio C-cbl Lck HTRF IC50 / Cbl-b Lck HTRF IC50
Outline: (§1)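 Signal is read once the detection mix has stood 20 min at ambient temperature. Curves are anchored by DMSO as maximum and by omission of LCK as minimum.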

c-Cbl = c-Cbl (Homo sapiens (Human), UniProt P22681); assay: C-Cbl LCK Ub TR-FRET assay (C-cbl Lck HTRF); format: biochemical
Outline: as §1

[1] = biological target: Human Cbl-b (residues 40-426) (Homo sapiens (Human), UniProt Q13191); assay: Cbl-b SPR assay; format: binding; details: for Fold of selectivity: C-cbl SPR Kd vs Cbl-b SPR Kd; for Kd: SPR, 20° C.
Outline: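 Values derive from a 1:1 model fitted to multicycle kinetics on captured protein (1300-1500 RU), using six 2-fold concentrations, 60 s contact and dissociation of 120-1200 s. In the chaser format, kd comes from a single-exponential fit of % site occupancy over time.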

c-Cbl (residues 47-435) = c-Cbl (residues 47-435) (Homo sapiens (Human), UniProt P22681); assay: c-Cbl SPR assay; format: binding; details: 20° C.
Protocol: Affinity of binding to Cbl-b and c-Cbl for compounds described herein was assessed by surface plasmon resonance (SPR) according to the following protocol.
A surface capture range of 1300-1500 RU of protein was used for both isoforms.
For SPR measurements, 6 concentrations with 2 fold serial dilution were measured with blanks flanking each series for double referencing. […] SPR sensorgrams were recorded in multi-cycle kinetics format, with a contact time of 60 seconds and a flow rate of 40 μl/min, the dissociation time was varied between 120-1200 seconds aiming for 4-5 half-lives of the measured interaction.
Kinetic and affinity parameters were extracted from the multicycle kinetics data fitting to a 1:1 binding model using the Biacore™ Incyte evaluation software (Cytiva).
Chaser assay utilize a single cycle kinetics SPR experiment with a contact time of 120 seconds, a flow rate of 50 μl/min and a dissociation time of 450 seconds. Single cycle kinetics titration utilized an initial blank injection and 5 concentrations with 2 fold serial dilution with a maximum concentration of 500 nM, blanked to a preceding 6 point blank single cycle kinetics injection for double referencing.
The kd is measured independently by determining the percentage unoccupied compound binding site over time by measuring the binding of a chaser compound measured by SPR.
Chaser binding was measured by a multicycle kinetics SPR experiment using a contact time of 20 seconds, a flow rate of 30 μl/min, and a dissociation time of 120 seconds. […] The % compound bound at a given time was determined by comparison to a single injection of chaser preceding the single cycle kinetics titration defined below. % Compound Bound=(1−(RUT/RUT0))*100
The % compound bound is plotted against time in seconds and fit to a single exponential, where the exponent represents the kd of the compound-protein complex. The single cycle kinetics experiment of the compound is then fit with a fixed kd determined using the chaser.

c-Cbl (residues 47-435), sequence (P22681 47-435): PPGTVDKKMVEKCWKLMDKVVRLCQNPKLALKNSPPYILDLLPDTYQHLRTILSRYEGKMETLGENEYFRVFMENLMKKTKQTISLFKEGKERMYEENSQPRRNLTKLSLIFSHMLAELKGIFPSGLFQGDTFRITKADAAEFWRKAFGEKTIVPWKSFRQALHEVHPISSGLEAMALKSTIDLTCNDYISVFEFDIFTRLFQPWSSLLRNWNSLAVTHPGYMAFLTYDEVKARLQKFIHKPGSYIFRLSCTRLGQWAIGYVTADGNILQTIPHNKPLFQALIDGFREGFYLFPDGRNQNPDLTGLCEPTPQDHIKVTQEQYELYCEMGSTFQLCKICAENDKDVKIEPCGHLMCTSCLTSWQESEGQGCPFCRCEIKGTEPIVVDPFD
c-Cbl, sequence (P22681 47-435): as above
Cbl-b, sequence (Q13191 40-426): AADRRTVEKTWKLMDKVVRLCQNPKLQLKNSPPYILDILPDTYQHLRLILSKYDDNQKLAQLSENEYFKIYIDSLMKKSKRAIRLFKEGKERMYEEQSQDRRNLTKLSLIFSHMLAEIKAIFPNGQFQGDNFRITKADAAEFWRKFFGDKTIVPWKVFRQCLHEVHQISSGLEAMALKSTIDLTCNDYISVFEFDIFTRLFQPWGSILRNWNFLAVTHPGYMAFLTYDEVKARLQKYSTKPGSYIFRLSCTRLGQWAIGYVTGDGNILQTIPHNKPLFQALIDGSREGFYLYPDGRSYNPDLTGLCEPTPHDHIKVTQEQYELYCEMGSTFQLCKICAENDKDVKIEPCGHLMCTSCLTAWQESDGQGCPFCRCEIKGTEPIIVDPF
Human Cbl-b (residues 40-426), sequence (Q13191 40-426): as above

| SMILES | IC50 (Cbl-b) | fold-selectivity (Cbl-b over C-cbl) (Cbl-b) | IC50 (c-Cbl) | Fold of selectivity [1] | Kd [1] | Kd (c-Cbl (residues 47-435)) |
| --- | --- | --- | --- | --- | --- | --- |
| Cn1cnnc1[C@]1(c2cccc(N3Cc4c(cc(CNC5(C)CCC5)cc4C(F)(F)F)C3=O)c2)C[C@H]([S@@+](C)[O-])C1 (single isomer, unassigned) [Compound 161] | 600 nM | 7.2x | 4300 nM | 6.6× | 460 nM | 3000 nM |
| Cn1cnnc1[C@@H](c1cccc(N2Cc3c(cc(CNC4(C)CCC4)cc3C(F)(F)F)C2=O)c1)C1COC1 (single isomer, unassigned) [Compound 164] | 8.9 nM | 2.0x | 18 nM | 7.0× | 1.9 nM | 14 nM |
| COC[C@@H]1CC1(c1cccc(N2Cc3c(cc(CNC4(C)CCC4)cc3C(F)(F)F)C2=O)c1)c1nncn1C (single isomer, unassigned) [Compound 166] | 1900 nM | 3.8x | 7200 nM | 5.3× | 710 nM | 3800 nM |
| COC[C@H]1CC1(c1cccc(N2Cc3c(cc(CNC4(C)CCC4)cc3C(F)(F)F)C2=O)c1)c1nncn1C (single isomer, unassigned) [Compound 167] | 1400 nM | 4.7x | 6400 nM | 5.8× | 910 nM | 5200 nM |
| C[C@H](c1cccc(N2Cc3c(cc(CNC4(C)CCC4)cc3C(F)(F)F)C2=O)c1)c1nncn1C (single isomer, unassigned) [Compound 170] | 12 nM | 1.0x | 12 nM | 2.8× | 4.9 nM | 15 nM |
| C[C@@H](c1cccc(N2Cc3c(cc(CNC4(C)CCC4)cc3C(F)(F)F)C2=O)c1)c1nncn1C (single isomer, unassigned) [Compound 171, 2-(3-(1-(4-methyl-4H-1,2,4-triazol-3-yl)ethyl)phenyl)-6-(((1-methylcyclobutyl)amino)methyl)-4-(trifluoromethyl)isoindolin-1-one] | 1100 nM | 2.0x | 2300 nM | 2.1× | 800 nM | 1700 nM |
| CO[C@H]1C[C@@](c2cccc(N3Cc4c(cc(CN5CCN(C)C[C@@H]5C(C)C)cc4C(F)(F)F)C3=O)c2)(c2nncn2C)C1 (single isomer, unassigned) [Compound 172] | 88 nM | 3.4x | 290 nM | 4.7× | 67 nM | 310 nM |
| C[C@H](NC1(C)CCC1)c1cc2c(c(C(F)(F)F)c1)CN(c1cccc(C3(c4nncn4C)CC(F)(F)C3)c1)C2=O (single isomer, unassigned) [Compound 173] | 20 nM | 2.2x | 45 nM | 6.3× | 7.9 nM | 49 nM |
| C[C@@H](NC1(C)CCC1)c1cc2c(c(C(F)(F)F)c1)CN(c1cccc(C3(c4nncn4C)CC(F)(F)C3)c1)C2=O (single isomer, unassigned) [Compound 174] | 8.5 nM | 0.80x | 6.8 nM | 2.8× | 0.4 nM | 1.1 nM |
| CO[C@H]1C[C@@](c2cccc(N3Cc4c(cc([C@@H](C)NC5(C)CCC5)cc4C(F)(F)F)C3=O)c2)(c2nncn2C)C1 (single isomer, unassigned) [Compound 175] | 9.6 nM | 1.0x | 9.7 nM | 6.4× | 0.95 nM | 6 nM |
| CO[C@H]1C[C@@](c2cccc(N3Cc4c(cc([C@H](C)NC5(C)CCC5)cc4C(F)(F)F)C3=O)c2)(c2nncn2C)C1 (single isomer, unassigned) [Compound 176] | 62 nM | 3.4x | 220 nM | 6.8× | 41 nM | 280 nM |
